# Measurements: patent publication US9034897B2, “Indanyl-substituted 4,5,6,7-tetrahydro-1H-pyrazolo[4,3-C]pyridines, their use as medicament, and pharmaceutical preparations comprising them” (SANOFI, priority 2011, dated 2015)
# Molecular target: Human TASK-1 channels (Homo sapiens (Human), UniProt O14649)
# Test: Activity on the TASK-1 channel in Xenopus oocytes (two-microelectrode voltage clamp)
# Type: cell-based
# Details: 5 μM; percentage inhibition of TASK-1 control current, Xenopus oocytes
# Protocol: Determination of the activity on the TASK-1 channel in Xenopus oocytes:
# Human TASK-1 channels were expressed in Xenopus oocytes. For this purpose, oocytes were isolated from Xenopus laevis and defolliculated. Subsequently, TASK-1-encoding RNA synthesized in vitro was injected into oocytes. After two days of TASK-1 protein expression, TASK-1 currents were measured by two-microelectrode voltage clamp. Data were acquired and analyzed using a TEC-10cx amplifier (NPI Electronic, Tamm, Germany) connected to an ITC-16 interface (Instrutech Corp., Long Island, USA) and Pulse software (HEKA Elektronik, Lambrecht, Germany). Oocytes were clamped to −90 mV and TASK-1 mediated currents were measured during 500 ms voltage pulses to 40 mV. Oocytes were continuously superfused with ND96 buffer containing: NaCl 96 mM, KCl2 mM, CaCl2 1.8 mM, MgCl2 1 mM, HEPES 5 mM (pH adjusted to 7.4 with NaOH). All experiments were performed at room temperature.
# Test substances were consecutively added to the bath solution at rising concentrations. Compound effects were calculated as the percentage inhibition of
# TASK-1 control current before compound application. IC50 values were obtained by fitting the data to the general dose-response equation.
# Sequence of Human TASK-1 channels (O14649 whole entry): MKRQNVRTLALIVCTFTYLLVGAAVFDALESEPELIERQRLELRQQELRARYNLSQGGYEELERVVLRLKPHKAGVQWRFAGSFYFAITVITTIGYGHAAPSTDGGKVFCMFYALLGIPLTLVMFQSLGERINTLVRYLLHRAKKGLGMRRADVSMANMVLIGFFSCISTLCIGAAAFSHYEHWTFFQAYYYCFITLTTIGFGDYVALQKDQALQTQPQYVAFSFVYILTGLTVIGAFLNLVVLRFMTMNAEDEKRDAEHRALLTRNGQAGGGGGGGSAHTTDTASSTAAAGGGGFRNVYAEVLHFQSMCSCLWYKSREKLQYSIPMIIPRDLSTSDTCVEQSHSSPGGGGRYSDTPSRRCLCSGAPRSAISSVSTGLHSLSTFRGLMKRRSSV
row,SMILES,inhibition at 5 µM
1,"CC(C)(C)C(=O)N1CCc2c(c(-c3cccc(C#N)c3)nn2[C@@H]2c3cc(F)cc(F)c3C[C@H]2O)C1 [Example 14d, 3-[1-((1R,2R)-4,6-Difluoro-2-hydroxy-indan-1-yl)-5-(2,2-dimethyl-propionyl)-4,5,6,7-tetrahydro-1H-pyrazolo[4,3-c]pyridin-3-yl]-benzonitrile]",94%
2,"COCC(=O)N1CCc2c(c(-c3cccc(C#N)c3)nn2[C@@H]2c3cc(F)cc(F)c3C[C@H]2O)C1 [Example 14e, 3-[1-((1R,2R)-4,6-Difluoro-2-hydroxy-indan-1-yl)-5-(2-methoxy-acetyl)-4,5,6,7-tetrahydro-1H-pyrazolo[4,3-c]pyridin-3-yl]-benzonitrile]",72%

# Results, then the compound that gave them:
row,inhibition at 5 µM,SMILES
1,51%,"CCC(=O)O[C@@H]1Cc2c(F)cc(F)cc2[C@H]1n1nc(-c2cccc(C#N)c2)c2c1CCN(C(=O)CC)C2 [Example 15a, Propionic acid (1R,2R)-1-[3-(3-cyano-phenyl)-5-propionyl-4,5,6,7-tetrahydro-pyrazolo[4,3-c]pyridin-1-yl]-4,6-difluoro-indan-2-yl ester]"
2,24%,"NC(=O)c1cccc(-c2nn([C@@H]3c4cc(F)cc(F)c4C[C@H]3O)c3c2CN(C(=O)C2CC2)CC3)c1 [Example 15b, 3-[5-Cyclopropanecarbonyl-1-((1R,2R)-4,6-difluoro-2-hydroxy-indan-1-yl)-4,5,6,7-tetrahydro-1H-pyrazolo[4,3-c]pyridin-3-yl]-benzamide]"
3,91%,"N#Cc1cccc(-c2nn([C@@H]3c4cc(F)cc(F)c4C[C@H]3O)c3c2CN(CCC(F)(F)F)CC3)c1 [Example 18c, 3-[1-((1R,2R)-4,6-Difluoro-2-hydroxy-indan-1-yl)-5-(3,3,3-trifluoro-propyl)-4,5,6,7-tetrahydro-1H-pyrazolo[4,3-c]pyridin-3-yl]-benzonitrile]"
4,83%,"COCCN1CCc2c(c(-c3cccc(C#N)c3)nn2[C@@H]2c3cc(F)cc(F)c3C[C@H]2O)C1 [Example 18d, 3-[1-((1R,2R)-4,6-Difluoro-2-hydroxy-indan-1-yl)-5-(2-methoxy-ethyl)-4,5,6,7-tetrahydro-1H-pyrazolo[4,3-c]pyridin-3-yl]-benzonitrile]"
5,81%,"N#Cc1cccc(-c2nn([C@@H]3c4cc(F)cc(F)c4C[C@H]3O)c3c2CN(CC2CC2)CC3)c1 [Example 18e, 3-[5-Cyclopropylmethyl-1-((1R,2R)-4,6-difluoro-2-hydroxy-indan-1-yl)-4,5,6,7-tetrahydro-1H-pyrazolo[4,3-c]pyridin-3-yl]-benzonitrile]"
6,67%,"CCCN1CCc2c(c(-c3ccc(F)cc3)nn2[C@@H]2c3cc(F)cc(F)c3C[C@H]2O)C1 [Example 18f, (1R,2R)-4,6-Difluoro-1-[3-(4-fluoro-phenyl)-5-propyl-4,5,6,7-tetrahydro-pyrazolo[4,3-c]pyridin-1-yl]-indan-2-ol]"
7,56%,COCCN1CCc2c(c(-c3ccc(F)cc3)nn2[C@@H]2c3cc(F)cc(F)c3C[C@H]2O)C1 [Example 18g]
8,39%,"NC(=O)c1cccc(-c2nn([C@@H]3c4cc(F)cc(F)c4C[C@H]3O)c3c2CN(CCC(F)(F)F)CC3)c1 [Example 18h, 3-[1-((1R,2R)-4,6-Difluoro-2-hydroxy-indan-1-yl)-5-(3,3,3-trifluoro-propyl)-4,5,6,7-tetrahydro-1H-pyrazolo[4,3-c]pyridin-3-yl]-benzamide]"
9,82%,"CCc1cc(F)cc2c1C[C@@H](O)[C@@H]2n1nc(-c2cccc(C#N)c2)c2c1CCN(C(C)=O)C2 [Example 19b, 3-[5-Acetyl-1-((1R,2R)-4-ethyl-6-fluoro-2-hydroxy-indan-1-yl)-4,5,6,7-tetrahydro-1H-pyrazolo[4,3-c]pyridin-3-yl]-benzonitrile]"

# Same assay, conditions: human TASK-1 expressed in Xenopus oocytes, currents during 500 ms pulses to 40 mV, room temperature
row,SMILES,IC50
1,"CC(=O)N1CCc2c(c(-c3cccc(Cl)c3)nn2[C@@H]2c3cc(F)cc(F)c3C[C@H]2O)C1 [Example 11v, 1-[3-(3-Chloro-phenyl)-1-((1R,2R)-4,6-difluoro-2-hydroxy-indan-1-yl)-1,4,6,7-tetrahydro-pyrazolo[4,3-c]pyridin-5-yl]-ethanone]",1180 nM
2,"CC(=O)N1CCc2c(c(-c3ccc(C)cc3)nn2[C@@H]2c3cc(F)cc(F)c3C[C@H]2O)C1 [Example 11x, 1-[1-((1R,2R)-4,6-Difluoro-2-hydroxy-indan-1-yl)-3-p-tolyl-1,4,6,7-tetrahydro-pyrazolo[4,3-c]pyridin-5-yl]-ethanone]",1520 nM
3,"COc1cc(-c2nn([C@@H]3c4cc(F)cc(F)c4C[C@H]3O)c3c2CN(C(C)=O)CC3)ccc1F [Example 11y, 1-[1-((1R,2R)-4,6-Difluoro-2-hydroxy-indan-1-yl)-3-(4-fluoro-3-methoxy-phenyl)-1,4,6,7-tetrahydro-pyrazolo[4,3-c]pyridin-5-yl]-ethanone]",1920 nM
4,"CC(=O)N1CCc2c(c(-c3ccc(F)c(C#N)c3)nn2[C@@H]2c3cc(F)cc(F)c3C[C@H]2O)C1 [Example 11z, 5-[5-Acetyl-1-((1R,2R)-4,6-difluoro-2-hydroxy-indan-1-yl)-4,5,6,7-tetrahydro-1H-pyrazolo[4,3-c]pyridin-3-yl]-2-fluoro-benzonitrile]",2130 nM
5,"CC(=O)N1CCc2c(c(-c3ccc(F)cc3)nn2[C@@H]2CCc3ccccc32)C1 [Example 12a, 1-[(R)-3-(4-Fluoro-phenyl)-1-indan-1-yl-1,4,6,7-tetrahydro-pyrazolo[4,3-c]pyridin-5-yl]-ethanone]",712 nM
6,"CC(=O)N1CCc2c(c(-c3ccc(F)cc3)nn2[C@H]2CCc3ccccc32)C1 [Example 12b, 1-[(S)-3-(4-Fluoro-phenyl)-1-indan-1-yl-1,4,6,7-tetrahydro-pyrazolo[4,3-c]pyridin-5-yl]-ethanone]",479 nM
7,"CCC(=O)N1CCc2c(c(-c3cccc(C#N)c3)nn2[C@@H]2c3cc(F)cc(F)c3C[C@H]2O)C1 [Example 14a, 3-[1-((1R,2R)-4,6-Difluoro-2-hydroxy-indan-1-yl)-5-propionyl-4,5,6,7-tetrahydro-1H-pyrazolo[4,3-c]pyridin-3-yl]-benzonitrile]",70 nM
8,"N#Cc1cccc(-c2nn([C@@H]3c4cc(F)cc(F)c4C[C@H]3O)c3c2CN(C(=O)C2CC2)CC3)c1 [Example 14b, 3-[5-Cyclopropanecarbonyl-1-((1R,2R)-4,6-difluoro-2-hydroxy-indan-1-yl)-4,5,6,7-tetrahydro-1H-pyrazolo[4,3-c]pyridin-3-yl]-benzonitrile]",83.1 nM
9,"CC(C)C(=O)N1CCc2c(c(-c3cccc(C#N)c3)nn2[C@@H]2c3cc(F)cc(F)c3C[C@H]2O)C1 [Example 14c, 3-[1-((1R,2R)-4,6-Dif1uoro-2-hydroxy-indan-1-yl)-5-isobutyryl-4,5,6,7-tetrahydro-1H-pyrazolo[4,3-c]pyridin-3-yl]-benzonitrile]",250 nM
10,"CO[C@@H]1Cc2c(F)cc(F)cc2[C@H]1n1nc(-c2cccc(C#N)c2)c2c1CCN(C(C)=O)C2 [Example 16a, 3-[5-Acetyl-1-((1R,2R)-4,6-difluoro-2-methoxy-indan-1-yl)-4,5,6,7-tetrahydro-1H-pyrazolo[4,3-c]pyridin-3-yl]-benzonitrile]",446 nM

# Next, values leading:
row,IC50,SMILES
1,1160 nM,"CO[C@@H]1Cc2c(F)cc(F)cc2[C@H]1n1nc(-c2ccc(F)cc2)c2c1CCN(C(C)=O)C2 [Example 16b, 1-[1-((1R,2R)-4,6-Difluoro-2-methoxy-indan-1-yl)-3-(4-fluoro-phenyl)-1,4,6,7-tetrahydro-pyrazolo[4,3-c]pyridin-5-yl]-ethanone]"
2,260 nM,"COC(=O)N1CCc2c(c(-c3cccc(C#N)c3)nn2[C@@H]2c3cc(F)cc(F)c3C[C@H]2O)C1 [Example 17a, 3-(3-Cyano-phenyl)-1-((1R,2R)-4,6-difluoro-2-hydroxy-indan-1-yl)-1,4,6,7-tetrahydro-pyrazolo[4,3-c]pyridine-5-carboxylic acid methyl ester]"
3,500 nM,"O[C@@H]1Cc2c(F)cc(F)cc2[C@H]1n1nc(-c2ccc(F)cc2)c2c1CCN(CC1CC1)C2 [Example 18a, (1R,2R)-1-[5-cyclopropylmethyl-3-(4-fluoro-phenyl)-4,5,6,7-tetrahydro-pyrazolo[4,3-c]pyridin-1-yl]-4,6-difluoro-indan-2-ol]"
4,8190 nM,"CC(C)N1CCc2c(c(-c3ccc(F)cc3)nn2[C@@H]2c3cc(F)cc(F)c3C[C@H]2O)C1 [Example 18b, (1R,2R)-4,6-Difluoro-1-[3-(4-fluoro-phenyl)-5-isopropyl-4,5,6,7-tetrahydro-pyrazolo[4,3-c]pyridin-1-yl]-indan-2-ol]"
5,231 nM,"CC(=O)N1CCc2c(c(-c3cccc(C#N)c3)nn2[C@@H]2c3cc(F)cc(C)c3C[C@H]2O)C1 [Example 19a, 3-[5-Acetyl-1-((1R,2R)-6-fluoro-2-hydroxy-4-methyl-indan-1-yl)-4,5,6,7-tetrahydro-1H-pyrazolo[4,3-c]pyridin-3-yl]-benzonitrile]"
6,500 nM,"CC(=O)N1CCc2c(c(-c3cccc(C#N)c3)nn2[C@@H]2c3cc(F)cc(C4CC4)c3C[C@H]2O)C1 [Example 20a, 3-[5-Acetyl-1-((1R,2R)-4-cyclopropyl-6-fluoro-2-hydroxy-indan-1-yl)-4,5,6,7-tetrahydro-1H-pyrazolo[4,3-c]pyridin-3-yl]-benzonitrile]"
7,393 nM,"CC(=O)N1CCc2c(c(-c3cccc(C#N)c3)nn2[C@@H]2c3cc(F)cc(Cl)c3C[C@H]2O)C1 [Example 21a, 3-[5-Acetyl-1-((1R,2R)-4-chloro-6-fluoro-2-hydroxy-indan-1-yl)-4,5,6,7-tetrahydro-1H-pyrazolo[4,3-c]pyridin-3-yl]-benzonitrile]"
